ChEMBL document CHEMBL1201862, “PubChem BioAssay data set” (2004)
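Following 48 hours of exposure in 96-well plates, responses at five concentrations were used to interpolate endpoints linearly. At the GI50, growth is halved.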 Activity calls are given as the source filed them. Rule as the data show it: active = GI50 up to about 1.1 µM and inactive = higher.

Tests used:
Assay in all cases: NCI-60 cell line screen, 48 h
SNB-75 = test system: SNB-75
MOLT-4 = test system: MOLT-4
UACC-62 = test system: UACC-62
Malme-3M = test system: Malme-3M
LOX IMVI = test system: LOX IMVI
NCI-H522 = test system: NCI-H522
OVCAR-3 = test system: OVCAR-3
KM-20L2 = test system: KM-20L2
SK-MEL-5 = test system: SK-MEL-5
KM12 = test system: KM12
HOP-62 = test system: HOP-62
A498 = test system: A498
HOP-92 = test system: HOP-92
SK-MEL-2 = test system: SK-MEL-2
OVCAR-8 = test system: OVCAR-8
M19-MEL = test system: M19-MEL
OVCAR-4 = test system: OVCAR-4
NCI-H23 = test system: NCI-H23
HT-29 = test system: HT-29
MDA-MB-435 = test system: MDA-MB-435

SMILES	GI50 (SNB-75)	GI50 (MOLT-4)	GI50 (UACC-62)	GI50 (Malme-3M)	GI50 (LOX IMVI)	GI50 (NCI-H522)	GI50 (OVCAR-3)	GI50 (KM-20L2)	GI50 (SK-MEL-5)	GI50 (KM12)	GI50 (HOP-62)	GI50 (A498)	GI50 (HOP-92)	GI50 (SK-MEL-2)	GI50 (OVCAR-8)	GI50 (M19-MEL)	GI50 (OVCAR-4)	GI50 (NCI-H23)	GI50 (HT-29)	GI50 (MDA-MB-435)
COC1=C(N)C(=O)c2nc(C)ccc2C1=O	2.03 µM (inactive)	5.85 µM (inactive)	1.75 µM (inactive)	1.77 µM (inactive)	0.826 µM (active)	1.74 µM (inactive)	2.02 µM (inactive)	2.3 µM (inactive)	1.7 µM (inactive)	1.87 µM (inactive)	1.57 µM (inactive)	1.89 µM (inactive)	9.95 µM (inactive)	1.74 µM (inactive)	3.93 µM (inactive)	0.308 µM (active)	1.89 µM (inactive)	1.47 µM (inactive)	1.98 µM (inactive)	
Cn1c2c(c3ccccc31)CCN(CCCCN1CCN(c3ccccc3)CC1)C2=O	44.8 µM (inactive)	7.38 µM (inactive)	31.8 µM (inactive)	8.04 µM (inactive)	12.8 µM (inactive)	42 µM (inactive)	57.3 µM (inactive)	4.29 µM (inactive)	5.69 µM (inactive)	30.1 µM (inactive)	85.7 µM (inactive)	45 µM (inactive)	> 29.1 µM (inactive)	24 µM (inactive)	47.6 µM (inactive)	43.6 µM (inactive)	42.1 µM (inactive)	35.6 µM (inactive)	4.16 µM (inactive)	17.5 µM (inactive)
CN(C)CCNC(=O)c1cccc2ccc(-c3ccc(Br)cc3)nc12	3.27 µM (inactive)	0.333 µM (active)	1.8 µM (inactive)	2.55 µM (inactive)	1.64 µM (inactive)	1.6 µM (inactive)	3.27 µM (inactive)	1.78 µM (inactive)	1.46 µM (inactive)	3.45 µM (inactive)	0.832 µM (active)	1.99 µM (inactive)	2.49 µM (inactive)	3.09 µM (inactive)	1.55 µM (inactive)	2.24 µM (inactive)	2.76 µM (inactive)	3.47 µM (inactive)	1.61 µM (inactive)	
C/C(=N\NC(=S)N1CCN(C2CCCCCC2)CC1)c1ccccn1	1.71 µM (inactive)	0.01 µM (active)	< 0.012 µM (active)	0.105 µM (active)	0.01 µM (active)	< 0.0253 µM (active)	0.01 µM (active)	0.01 µM (active)	0.0249 µM (active)	0.0197 µM (active)		1.49 µM (inactive)	0.0473 µM (active)	0.481 µM (active)	0.01 µM (active)	0.34 µM (active)	0.041 µM (active)	0.01 µM (active)	< 0.0343 µM (active)	0.161 µM (active)
O=C(O)COc1ccc(C(=O)/C(SS/C(C(=O)c2ccc(OCC(=O)O)c(Cl)c2Cl)=C2\C=C(c3ccc(Br)cc3)SS2)=C2/C=C(c3ccc(Br)cc3)SS2)c(Cl)c1Cl	7.5 µM (inactive)	3.44 µM (inactive)	4.55 µM (inactive)	11.5 µM (inactive)	2.69 µM (inactive)	0.798 µM (active)	3.73 µM (inactive)	39.6 µM (inactive)	11.9 µM (inactive)	8.13 µM (inactive)	12.9 µM (inactive)	18.2 µM (inactive)	3.5 µM (inactive)	6.61 µM (inactive)	5.16 µM (inactive)	5.45 µM (inactive)	4.51 µM (inactive)	4.62 µM (inactive)	12.2 µM (inactive)	30.3 µM (inactive)
O=C(NCCCCCCCCNC(=O)c1cccc2ccccc12)c1cccc2ccccc12	4.61 µM (inactive)	> 100 µM (inactive)	21.2 µM (inactive)	44.8 µM (inactive)	> 77.8 µM (inactive)	9.4 µM (inactive)	16.7 µM (inactive)	> 100 µM (inactive)	> 92.9 µM (inactive)	> 100 µM (inactive)	4.07 µM (inactive)	17.1 µM (inactive)	4.34 µM (inactive)	37.2 µM (inactive)	9.91 µM (inactive)	> 86.1 µM (inactive)	4.01 µM (inactive)	23.6 µM (inactive)	> 100 µM (inactive)	> 100 µM (inactive)
